From patent publication US7387779B2, “Anti-angiogenic proteins and fragments and methods of use thereof” (Beth Israel Deaconess Medical Center, priority 1998, dated 2008) come the findings set out here.

“And” between values parts separate entries of the source, which are not always exact repeats. Identical values can stand only once. Like-named read-outs stand apart in the source and are kept apart here.

Series [1] relates to PC3 tumor xenografts. The experiment in a line: PC3 human prostate tumor xenograft (Example 59). Type of series: in vivo, nude NCRNU mice. The note with it: 5.0 mg/kg i.p. daily, 3 weeks. From the text:
(§1) For tests involving the MDAMB-435 model, female nude NCRNU mice, 5-6 weeks old, weighing approximately 20 grams, were implanted with 2×10^6 MDAMB-435 cells into the subaxillary mammary fat pad. For tests involving the PC3 model, male nude NCRNU mice, 5-6 weeks old, weighing approximately 25 g were implanted with 2×10^6 PC3 cells into the dorsal subcutis. When the tumors were 100 mm^3 (for the MDAMB-435 model), or 60 mm^3 (for the PC3 model), the animals were pair-matched into treatment and control groups.
(§2) Each group contained 6-7 tumored mice, each of which was ear-tagged and followed individually throughout the experiment. Initial doses of peptide or vehicle control were given on the day of pair-matching (Day 0), and were administered daily via intraperitoneal (i.p.) injection at doses indicated. Mice were weighed weekly, and tumor measurements were taken by calipers weekly, starting on Day 0. These tumor measurements were converted to tumor volume by a well-known formula, (V=W^2×L/2) and mean tumor volumes were plotted against time. Mice were euthenized at the end of the treatment period. Upon termination, the mice were weighed, sacrificed and their tumors were excised. The mean tumor weight per group was calculated, and the mean treated tumor volume/control tumor volume×100 was subtracted from 100% to give the tumor growth inhibition (TGI) for each group.
For orientation: In xenograft studies the graft and the host belong to different species.

Series [2] concerns MDAMB-435 tumor xenografts. Description: MDAMB-435 human breast tumor xenograft (Example 59). The series is classed as in vivo, nude NCRNU mice. The note with it: 5.0 mg/kg i.p. daily, 3 weeks.
From the text: as §1, §2

Series [3] relates to MDAMB-435 tumor xenografts. The series is classed as in vivo. Particulars: for Final Tumor Weight ± SEM: control 333.3 ± 39.61. Here is the method: Female nude NCRNU mice, 5-6 weeks old, weighing approximately 20 grams, were implanted with 2×10^6 MDAMB-435 cells in the subaxillary mammary fat pad. When the tumors were 100 mm^3, the animals were pair-matched into treatment and control groups. Each group contained 7 tumored mice, each of which was ear-tagged and followed individually throughout the experiment. Initial doses of T8 peptide or vehicle control were given on the day of pair-matching (Day 0), and were administered via intraperitoneal (i.p.) injection at 1 mg and 2.5 mg per kg animal weight. Mice were weighed twice weekly, and tumor measurements were taken by calipers twice weekly, starting on Day 1. These tumor measurements were converted to tumor volume by the well-known formula V=W2×L/2, and mean tumor volumes were plotted against time. Mice were euthenized at the end of the treatment period. Upon termination, the mice were weighed, sacrificed and their tumors were excised. The mean tumor weight per group was calculated, and the value of (mean treated tumor weight/mean control tumor weight×100) was subtracted from 100% to give the tumor growth inhibition (TGI) for each group.
Treatment was initiated when tumor volumes reached 100 mm^3. All groups received injections bid, i.p., for 26 days.

Series [4] concerns MDAMB-435 tumor xenografts. The experiment in a line: MDAMB-435 human breast orthotopic xenograft (Example 57). Particulars: four weeks; for Final Tumor Weight (V/Vo) ± SEM: control 3.77 ± 0.38. The series is classed as in vivo, nude NCRNU mice. As to the method: Female nude NCRNU mice, 5-6 weeks old, weighing approximately 20 grams, were implanted with 2×10^6 MDAMB-435 cells into the subaxillary mammary fat pad. When the tumors were 100 mm^3, the animals were pair-matched into treatment and control groups. Each group contained 6-7 tumored mice, each of which was ear-tagged and followed individually throughout the experiment. Initial doses of T8 or TP3 peptide or vehicle control were given on the day of pair-matching (Day 0), and were administered via intraperitoneal (i.p.) injection at doses indicated. Mice were weighed twice weekly, and tumor measurements were taken by calipers twice weekly, starting on Day 1. These tumor measurements were converted to tumor volume by a well-known formula, (V=W^2×L/2) and mean tumor volumes as well as volume ratios (V/Vo) were plotted against time. Mice were euthanized at the end of the treatment period. Upon termination, the mice were weighed, sacrificed and their tumors were excised. The mean tumor weight per group was calculated, and the mean value (treated tumor ratio/mean control tumor ratio× 100) was subtracted from 100% to give the tumor growth inhibition (TGI) for each group.
Treatment was initiated when tumor volumes reached […]. All groups received injections I.P. daily, except for one T8-treated group, which was treated twice per week.

For series [5], the system named is PC3 tumor xenografts. Description: PC3 human prostate tumor xenograft (Example 58). The series is classed as in vivo, nude NCRNU mice. As to the method:
Male nude NCRNU mice, 5-6 weeks old, weighing approximately 25 grams, 6 were implanted with 2×10^6 PC3 cells into the dorsal subcutis. When the tumors were 60 mm^3, the animals were pair-matched into treatment and control groups. Each group contained 6-7 tumored mice, each of which was ear-tagged and followed individually throughout the experiment. Initial doses of peptide or vehicle control were given on the day of pair-matching (Day 0), and were administered via intraperitoneal (i.p.) injection at doses indicated. Mice were weighed weekly, and tumor measurements were taken by calipers weekly. These tumor measurements were converted to tumor volume by a well-known formula, (V=W^2×L/2), and mean tumor volumes were plotted against time. Mice were euthenized at the end of the treatment period. Upon termination, the mice were weighed, sacrificed and their tumors were excised. The mean tumor weight per group was calculated, and the value of mean treated tumor volume or volume ratio/mean control tumor volume or volume ratio×100 was subtracted from 100% to give the tumor growth inhibition (TG1) for each group. All groups received injections I.P. daily, except for two T8-treated groups, which were treated twice per week and once a week, respectively.

Series [6] concerns mouse aortic endothelial cells (MAE). Description: Endothelial tube formation on Matrigel. The series is classed as cell-based. The note with it: endothelial tube assay (FIGS. 30 and 31). Here is the method: To measure inhibition of endothelial tube formation, 320 μl of Matrigel (Collaborative Biomedical Products, Bedford, Mass., USA) was added to each well of a 24-well plate and allowed to polymerize (Grant, D. S. et al., 1994, Pathol. Res. Pract. 190:854-63). A suspension of 25,000 mouse aortic endothelial cells (MAE) in EGM-2 medium (Clonetics Corp., San Diego, Calif., USA) without antibiotic was passed into each well coated with Matrigel. The cells were treated with increasing concentrations of either Arresten, BSA, sterile PBS or the 7S domain. All assays were performed in triplicate. Cells were incubated for 24-48 hours at 37° C. and viewed using a CK2 Olympus microscope (3.3 ocular, 10× objective). The cells were then photographed using 400 DK coated TMAX film (Kodak). Cells were stained with diff-quik fixative (Sigma Chemical Company, St. Louis, Mo., USA) and photographed again. Ten fields were viewed, and the tubes counted and averaged.
Matrigel (Collaborative Biomedical Products, Bedford, Mass., USA) was added ([…]) to each well of a 24 well plate and allowed to polymerize (Grant, D. S. et al., supra). A suspension of 25,000 mouse aortic endothelial cells (MAE) in EGM-2 (Clonetics Corporation, San Diego, Calif., USA) medium without antibiotic was passed into each well coated with Matrigel. The cells were treated with either Canstatin, BSA, sterile PBS or α5-NC1 domain in increasing concentrations. All assays were performed in triplicate. Cells were incubated for 24-48 hours at 37° C. and viewed using a CK2 Olympus microscope (3.3 ocular, 10× objective). The cells were then photographed using 400 DK coated TMAX film (Kodak). Cells were stained with diff-quik fixative (Sigma Chemical Co., St. Louis, Mo., USA) and photographed again (Grant, D. S. et al., 1994, Pathol. Res. Pract. 190:854-63). Ten fields were viewed, tubes counted and averaged.
Matrigel (Collaborative Biomedical Prods., Bedford, Mass., USA) was added ([…]) to each well of a 24-well plate and allowed to polymerize (Grant, D. S. et al., 1994, Pathol. Res. Pract. 190:854-63). A suspension of 25,000 MAE cells in EGM-2 medium (Clonetics Corporation, San Diego, Calif., USA) without antibiotic was passed into each well coated with Matrigel (Grant, D. S. et al., 1994, Pathol. Res. Pract. 190:854-63). The cells were treated with either Tumstatin, BSA or 7S domain in increasing concentrations. Control cells were incubated with sterile PBS. All assays were performed in triplicate. Cells were incubated for 24-48 hours at 37° C. and viewed using a CK2 Olympus microscope (magnification of 3.3× ocular, 10× objective). The cells were then photographed using 400 DK coated TMAX film (Kodak). Cells were stained with diff-quik fixative (Sigma Chemical Co.) and photographed again (Grant, D. S. et al., 1994, Pathol. Res. Pract. 190:854-63). Ten fields were viewed, and the number of tubes were counted by two investigators unaware of the experimental protocols, and averaged.
Fragments and mutants of Arresten and Canstatin were also made according to the Pseudomonas elastase digestions of Mariyama et al. (1992, J. Biol. Chem. 267:1253-58). The digest was resolved by gel filtration HPLC and the resultant fragments were analyzed by SDS-PAGE and evaluated in the endothelial tube assay described above. These fragments included a 12 kDa fragment of Arresten, an 8 kDa fragment of Arresten, and a 10 kDa fragment of Canstatin. In addition, two fragments of Tumstatin (‘333’ and ‘334’) were generated by PCR cloning.

Setting [7] is: 5.0 mg/kg i.p. daily, 3 weeks, T7 vehicle 5.626 ± 0.38, T8 vehicle 6.278 ± 1.483.
The mark [8] stands for this setting: 5.0 mg/kg, printed (2x/week) again, once a week in the text.

With KQRFTTMPFLFCNVNDVCNFASRNDYS [T8], the “% Tumor growth inhibition” value in the series on PC3 tumor xenografts [1] is 35.4%; in series [2] it was 50.5%; in series [3] (2.5 mg/kg, bid i.p., 26 days) it was ~49% and 47.91%; in series [4] (5.0 mg/kg I.P. daily) it was 31%; in the series with PC3 tumor xenografts [5] (5.0 mg/kg (2x/week)), 8.1%; with PC3 tumor xenografts [5] (5.0 mg/kg i.p. daily, 3 weeks), 45%. Besides, in the series on PC3 tumor xenografts [5] (setting [8]), the “% Tumor growth inhibition” value worked out at 39.5%. Besides, the “Final Tumor Weight (V/Vo) ± SEM” value came out at 691.4 ± 90.52 in the series with PC3 tumor xenografts [1] (control 1070.0 ± 132.5); 231.9 ± 27.03 in series [2] (control 468.5 ± 48.06); 2.21 ± 0.31 in series [4] (5.0 mg/kg (2x/week)); 2.60 ± 0.38 in series [4] (5.0 mg/kg I.P. daily); 5.770 ± 1.156 in the series on PC3 tumor xenografts [5] (5.0 mg/kg (2x/week)); 3.455 ± 1.228 in the series with PC3 tumor xenografts [5] (setting [7]). For the same molecule, in the series on PC3 tumor xenografts [5] (setting [8]), the “Final Tumor Weight (V/Vo) ± SEM” value was 3.800 ± 1.602. Besides, the “Final Tumor Weight ± SEM” value is 173.6 ± 23.73 in series [3] (2.5 mg/kg, bid i.p., 26 days) and 237.8 ± 31.88 in series [3] (Dosage 1.9 mg/kg as printed (1 mg/kg in the text), bid i.p., 26 days). Also, the “toxicity as judged by weight change” value in series [3] (mouse, in vivo) is “no toxicity”.
For the molecule “KLFCNVNCVCNFASRNDYS (TP3 (amino acids 76-94 of SEQ ID NO10; lysine has been substituted for the phenylalanine residue at position 76 of the full-length Tumstatin molecule, and cysteine has been substituted for the aspartic acid at position 83))”, the “Final Tumor Weight (V/Vo) ± SEM” value in series [4] (1.0 mg/kg I.P. daily) is reported as 2.62 ± 0.45; in series [4] (5.0 mg/kg I.P. daily), 1.88 ± 0.29; in the series with PC3 tumor xenografts [5] (setting [7]), 2.940 ± 0.636. Moreover, the “% Tumor growth inhibition” value in series [4] (5.0 mg/kg I.P. daily) came to 50.0%; in the series with PC3 tumor xenografts [5] (5.0 mg/kg i.p. daily, 3 weeks), 53.2%.

B1: Tumstatin 334: residues 125 to 244 of full-length Tumstatin (SEQ ID NO:21) (protein)
chain: CEGPAIAIAVHSQTTDIPPCPHGWISLWKGFSFIMFTSAGSEGTGQALASPGSCLEEFRASPFLECHGRGTCNYYSNSYSFWLASLNPERMFRKPIPSTVKAGELEKIISRCQVCMKKRH
modifications: Tumstatin 334 (amino acids 125-244 of SEQ ID NO10)
The molecule B1 came in with an ED50 in series [6] of 0.02 µg/mL.

B2: Tumstatin 333: residues 1 to 124 of full-length Tumstatin (SEQ ID NO:20) (protein)
chain: GLKGKRGDSGSPATWTTRGFVFTRHSQTTAIPSCPEGTVPLYSGFSFLFVQGNQRAHGQDLGTLGSCLQRFTTMPFLFCNVNDVCNFASRNDYSYWLSTPALMPMNMAPITGRALEPYISRCTV
modifications: Tumstatin 333 (amino acids 1-124 of3 SEQ ID NO10)
B2 registered an ED50 in series [6] of 0.075 µg/mL.
